The source of these data is patent US20140155361A1, “METHOD FOR TREATING LUNG DISEASE” (Duke University, priority 2010, published 2014).

Assay [1] has as its system mouse alveolar macrophage cell line (MHS cells). Kind of assay: oxidative stress in macrophage cell line after NQO1 inhibitor or inducer pretreatment and LPS or PMA challenge. The format is cell-based. The conditions noted are these: pretreated 4 hours (100 nM MAC220 or 5-10 μM β-lapachone), then PMA or LPS 2 hours, supernatant.
Method: Murine alveolar macrophage cell line (MH-S cell) purchased from ATCC (Manassas, Va.) was used for in vitro NQO1 blocking and inducing assays. Cells were cultured in RPMI1640 medium supplemented with 10% heat-inactivated fetal bovine serum, 2 mM L-glutamine, penicillin (100 U/ml), streptomycin (100 μg/ml), and 10 mM HEPES. To determine the role of NQO1 in macrophage response to LPS or PMA, cells at 80-90% confluence were pretreated with 10 μM of dicumerol for 1 hour, 100 nM of MAC220 or 5-10 μM of β-lapachone for 4 hours, and then were challenged by 20 ng/ml of LPS or 1 μM of PMA. Cell culture supernatants were collected after 2 hour incubation. Same volume of DMSO and PBS were used as vehicle control.
The next assay deals with human cancer cell lines. Particulars: single agent, read-out: antineoplastic activity (IC50); cited from earlier work.
Assay [2] has as its target T1, human DNA Topoisomerase I (Homo sapiens, UniProt P11387).
T1 sequence (P11387 1-765): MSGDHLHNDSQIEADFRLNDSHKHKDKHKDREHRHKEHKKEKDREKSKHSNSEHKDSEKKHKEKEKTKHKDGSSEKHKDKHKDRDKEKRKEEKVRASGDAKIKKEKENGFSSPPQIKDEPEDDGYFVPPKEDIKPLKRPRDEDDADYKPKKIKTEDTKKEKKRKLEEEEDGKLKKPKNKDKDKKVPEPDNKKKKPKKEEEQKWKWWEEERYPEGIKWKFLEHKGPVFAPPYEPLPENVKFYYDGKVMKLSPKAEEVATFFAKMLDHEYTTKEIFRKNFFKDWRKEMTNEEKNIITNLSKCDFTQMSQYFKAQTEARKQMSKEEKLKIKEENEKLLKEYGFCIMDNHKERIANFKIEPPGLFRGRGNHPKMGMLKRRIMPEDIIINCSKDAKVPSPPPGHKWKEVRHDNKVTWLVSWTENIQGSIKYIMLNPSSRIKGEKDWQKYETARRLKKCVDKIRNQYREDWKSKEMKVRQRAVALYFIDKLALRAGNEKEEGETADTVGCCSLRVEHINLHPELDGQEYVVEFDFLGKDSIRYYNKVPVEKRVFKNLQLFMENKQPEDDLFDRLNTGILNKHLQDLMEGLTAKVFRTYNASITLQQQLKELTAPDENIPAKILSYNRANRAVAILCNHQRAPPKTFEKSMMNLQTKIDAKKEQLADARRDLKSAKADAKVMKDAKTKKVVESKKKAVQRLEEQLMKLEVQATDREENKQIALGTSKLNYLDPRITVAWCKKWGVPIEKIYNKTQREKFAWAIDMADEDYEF
The conditions noted are these: cited from earlier work.

Assay [3] deals with human DNA Topoisomerase II. The conditions noted are these: cited from earlier work.
The subject of assay [4] is NQO1 deficient and C57BL/6 mice. The assay is described as follows: elastase (PPE) model of emphysema with oral NAC. It is filed as in vivo, mouse. The source says:
(§1) C57BL/6J mice were purchased from Jackson Laboratories (Bar Harbor, Me.) to be used as controls. A breeding colony was established at Duke University from breeding pairs of NQO1 deficient mice (backcrossed 16 generations on a C57BL/6 background) that were generously provided by Dr. Frank Gonzalez at the National Cancer Institute (Bethesda, Md.) (Radjendirane et al. J. Biol. Chem. 1998; 273:7382-7389). Male C57BL/6 or NQO1 deficient mice were used at one, two, four and six months of age. Experimental protocols were approved by the Institutional Animal Care and Use Committee at Duke University Medical Center and were performed in accordance with the standards established by the U.S. Animal Welfare Act.
At two months of age, WT and NQO1 deficient mice were treated with porcine pancreatic elastase (PPE, Sigma Aldrich, St. Louis Mo.) or saline by oropharyngeal aspiration. Briefly, immediately after inhalational anesthesia with 3% isoflurane (IsoFlo from Abbott Laboratories and Open-Circuit Gas Anesthesia System from Stoelting), animals were suspended by their upper incisors on a 60° incline board, and a liquid volume of PPE [25 μg/50 μL saline] or saline alone was delivered by oropharyngeal aspiration. Thirteen days post, the mice were phenotyped by flexiVent for pulmonary mechanics and lavage to collect bronchoalveolar lavage fluid (Foster et al. J Appl Physiol 2001; 90:1111-1117).
(§2) N-acetyl cysteine (Sigma Aldrich, St. Louis Mo.) was dissolved in the mouse water at a concentration of 2 mg/mL (March et al. Toxicol. Sci. 2006; 92:545-559). The water was changed every two days to prevent oxidation of the NAC. Mice were given NAC in their water for one week before LPS/Saline or PPE/Saline treatment and remained on the NAC water until phenotyping.
(§3) For the mice that underwent pulmonary function tests, the procedure required approximately five minutes per mouse from the point at which the mouse was administered anesthetic and prepared for surgery until the conclusion of pulmonary function measurements and euthanasia. Mice were anesthetized (60 mg/kg Nembutal) and surgically prepared with a tracheal cannula and then placed on a computer-controlled ventilator (flexiVent, SCIREQ, Montreal, Canada) at a constant tidal volume of 7.5 mL/kg and a […] of 3 cm H2O. The animals were then given a neuromuscular blockade (0.8 mg/kg Pancuronium Bromide, Sigma-Aldrich) and given three minutes to adjust to the ventilator. Pressure-volume curves were generated by slow stepwise (ramp) inflation to total lung capacity and deflation back to […] residual capacity (Lovgren et al. Am. J. Physiol. 2006; 291:L144-156). The static compliance measurements were calculated from the pressure volume curves ([…]).
(§4) Alveolar surface density (ASD) was calculated as previously described (Auten et al. Am. J. Physiol. 2001; 281:L336-344). Briefly, ten digital images of parenchymal architecture from each mouse were captured at 40× magnification were chosen (omitting large vascular and bronchiolar structures) from 5 μm thick sections of paraffin embedded, formalin-fixed mouse lung that were stained with hematoxylin and eosin (H&E stain, AML Laboratories, Rosedale, Md.). Five random fields were chosen (omitting large vascular and bronchiolar structures) and images were overlaid with an 11°-11 point grid (Metamorph; Universal Imaging, West Chester, Pa.) for point (P) and intercept (I) counting of the alveolar septa. Alveolar volume density was calculated from Palveoli/Pparenchyma and alveolar surface density from 2Ialveoli/LT, where LT was the test line length within the lung parenchyma.

The test system is the same in assay [5]. The assay is described as follows: LPS-induced murine emphysema with oral NAC. The format is in vivo, mouse.
Source text: as §1
LPS (Sigma Aldrich, St Louis Mo.) was reconstituted with sterile saline and added for a dose of 5 μg/m^3. At one month of age, mice were placed in stainless steel wire cage exposure racks in a 20-L plexiglass chamber and exposed to aerosolized LPS for 2.5 hours. LPS solution was aerosolized with a 6-jet atomizer (TSI) with all output directed to the exposure chamber. Filtered air was supplied to the atomizer at 30-psi gauge pressure (Brass et al. Am. J. Resp. Cell. Mol. 2008; 39:584-590). Mice were then returned to their cages. The mice were exposed every other day for a total of three exposures and then given four weeks to recover.
as §2, §3
as §4, with “Five random fields were chosen (omitting large vascular and bronchiolar structures) and images were overlaid with an 11°-11 point grid (Metamorph; Universal Imaging, West Chester, Pa.) for point (P) and intercept (I) counting of the alveolar septa.” left out, “parenchyma. […]” for “parenchyma.”

[6] abbreviates: BALF, NQO1 and WT mice given NAC prior to elastase challenge.
Where [7] appears, read: NQO1 deficient mice, oral NAC in water + elastase vs elastase only.
The mark [8] stands for this setting: LPS treated NQO1 deficient mice compared to LPS+NAC NQO1 deficient mice.

Turning to `CC1(C)CCC2=C(O1)c1ccccc1C(=O)C2=O` [β-lapachone, 3,4-dihydro-2,2-dimethyl-2H-naphtho[1,2-b]pyran-5,6-dione], the oxidative stress level entry in assay [1] is given as “dose response decrease”. The IC50 in the assay on human cancer cell lines was 1 to 10 µM. Also, the “in vitro inhibition of human DNA Topoisomerase I” value in assay [2] is listed as “potent in vitro inhibition”. For the same compound, the “in vitro inhibition of human DNA Topoisomerase II” value in assay [3] is given as “potent in vitro inhibition”.

As to `CC(=O)N[C@@H](CS)C(=O)O` [NAC, N-acetyl cysteine], in assay [4] (setting [6]), the 8-isoprostane levels result is “reduction” and the protein carbonyls entry is given as “reduction”. In assay [4] (NQO1 deficient mice treated with NAC, elastase model), the “Glutathione measurements in the BAL” value is on record as “increased concentrations”. In addition, in assay [4] (setting [7]), the lung compliance entry is listed as “partially attenuated” and the pressure-volume measurements result is “partially attenuated”. Besides, in assay [4] (PPE only group compared to the PPE+NAC group, NQO1 deficient and C57BL/6 mice), the “neutrophils in BALF” value is reported as “significant increase”. Also, in assay [4] (PPE+NAC vs PPE groups), the mean line intercepts result is given as “complete abrogation of the elastase effect” and the surface alveolar density result was “complete abrogation of the elastase effect”. Moreover, in assay [5] (setting [8]), the “8-isoprostane concentrations in the BALF” value is given as “significant increase” and the “protein carbonyls in the BALF” value was “significant increase”. The “polymorphonuclear leukocytes, share of BALF cells” value in assay [5] (LPS+NAC treated NQO1 deficient mice (LPS only: 5-9%)) is recorded as 1-4%. In addition, the “Glutathione measurements in the BAL” value in assay [5] (NQO1 deficient mice treated with NAC, LPS model) was “increased concentrations”. Also, the static compliance entry in assay [5] (NQO1 deficient mice, LPS + NAC vs LPS) is reported as “attenuated”.

For orientation: IC50 means the midpoint of a concentration-inhibition curve.
